The compounds below were run against T1, human glucagon receptor (Homo sapiens, UniProt P47871) (assay: Glucagon Binding Assay (III)). Details: BHK cell membranes, WGA SPA beads, 125I-glucagon; read-out: Glu Bd Assay (III) IC50.
T1 construct: expressed in transfected cells; host or cells: BHK (baby hamster kidney) cells
Outline: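 Membranes from BHK cells transfected with the human receptor, prepared at 4 °C, were used in a WGA-bead scintillation proximity binding format. Plates were shaken for 4 hours, left to settle 8–48 hours and then counted. Non-specific binding was defined with 500 nM glucagon.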

T1 sequence (P47871 26-477): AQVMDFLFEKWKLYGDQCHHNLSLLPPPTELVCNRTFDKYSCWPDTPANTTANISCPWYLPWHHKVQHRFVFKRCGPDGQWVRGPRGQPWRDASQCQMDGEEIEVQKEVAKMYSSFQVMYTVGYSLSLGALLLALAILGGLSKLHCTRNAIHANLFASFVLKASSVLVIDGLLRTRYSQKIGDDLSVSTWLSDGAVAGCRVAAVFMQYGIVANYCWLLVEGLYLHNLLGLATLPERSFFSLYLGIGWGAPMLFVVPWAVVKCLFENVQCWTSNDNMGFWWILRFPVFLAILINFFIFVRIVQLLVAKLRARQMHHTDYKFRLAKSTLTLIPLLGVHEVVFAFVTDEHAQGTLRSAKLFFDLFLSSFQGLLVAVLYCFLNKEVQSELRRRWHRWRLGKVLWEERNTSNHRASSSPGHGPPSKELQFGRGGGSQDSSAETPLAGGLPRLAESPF

SMILES | IC50
CC(C)(C)c1ccc(N(Cc2ccc(C(=O)Nc3nn[nH]n3)cc2)C(=O)Nc2ccccc2)cc1 [Example 329] | 278 nM
CC(C)(C)c1ccc(N(Cc2ccc(C(=O)Nc3nn[nH]n3)cc2)C(=O)Nc2cc(C(F)(F)F)cc(C(F)(F)F)c2)cc1 [Example 330, 4-[3-(3,5-Bis(trifluoromethyl)phenyl)-1-(4-tert-butylphenyl)ureidomethyl]-N-(2H-tetrazol-5-yl)benzamide] | 44 nM
CC(C)(C)c1ccc(N(Cc2ccc(C(=O)Nc3nn[nH]n3)cc2)C(=O)Nc2ccc(Cl)c(C(F)(F)F)c2)cc1 [Example 331, 4-[1-(4-tert-Butylphenyl)-3-(4-chloro-3-trifluoromethylphenyl)ureidomethyl]-N-(2H-tetrazol-5-yl)benzamide] | 30 nM
CC(C)(C)c1ccc(N(Cc2ccc(C(=O)Nc3nn[nH]n3)cc2)C(=O)Nc2cc(Cl)cc(Cl)c2)cc1 [Example 333, 4-[1-(4-tert-Butylphenyl)-3-(3,5-dichlorophenyl)ureidomethyl]-N-(2H-tetrazol-5-yl)benzamide] | 26 nM
CC(C)(C)[C@H]1CC[C@H](N(Cc2ccc(C(=O)Nc3nn[nH]n3)cc2)C(=O)Nc2ccc(OCC3CC3)cc2C(F)(F)F)CC1 [Example 334, 4-[1-(trans-4-tert-Butylcyclohexyl)-3-(4-cyclopropylmethoxy-2-trifluoromethylphenyl)ureidomethyl]-N-(2H-tetrazol-5-yl)benzamide] | 288 nM
O=C(Nc1nn[nH]n1)c1ccc(CN(C(=O)Nc2cc(Cl)sc2Cl)c2ccc(C3CCCCC3)cc2)cc1 [Example 335, 4-[1-(4-Cyclohexylphenyl)-3-(2,5-dichlorothiophen-3-yl)ureidomethyl]-N-(2H-tetrazol-5-yl)benzamide] | 1090 nM
CC(NC(=O)N(Cc1ccc(C(=O)Nc2nn[nH]n2)cc1)c1ccc(C2CCCCC2)cc1)c1ccc(Cl)cc1 (centres unmarked) [Example 336, 4-[3-[1-(4-Chlorophenyl)ethyl]-1-(4-cyclohexylphenyl)ureidomethyl]-N-(2H-tetrazol-5-yl)benzamide] | 58 nM
COc1ccc(NC(=O)N(Cc2ccc(C(=O)Nc3nn[nH]n3)cc2)c2ccc(C(C)(C)C)cc2)cc1S(C)(=O)=O [Example 339, 4-[1-(4-tert-Butylphenyl)-3-(3-methylsulfonyl-4-methoxyphenyl)ureidomethyl]-N-(2H-tetrazol-5-yl)benzamide] | 797 nM
COc1ccc(NC(=O)N(Cc2ccc(C(=O)Nc3nn[nH]n3)cc2)c2ccc(C3CCCCC3)cc2)cc1S(C)(=O)=O [Example 340, 4-[1-(4-Cyclohexylphenyl)-3-(3-methylsulfonyl-4-methoxyphenyl)ureidomethyl]-N-(2H-tetrazol-5-yl)benzamide] | 179 nM
O=C(Nc1nn[nH]n1)c1ccc(CN(C(=O)Nc2nc3ccc(OC(F)(F)F)cc3s2)c2ccc(C3CCCCC3)cc2)cc1 [Example 341, 4-[1-(4-Cyclohexylphenyl)-3-(6-trifluoromethoxybenzothiazol-2-yl)ureidomethyl]-N-(2H-tetrazol-5-yl)benzamide] | 56 nM
O=C(Nc1nn[nH]n1)c1ccc(CN(C(=O)Nc2nc3ccc([N+](=O)[O-])cc3s2)c2ccc(C3CCCCC3)cc2)cc1 [Example 342, 4-[1-(4-Cyclohexylphenyl)-3-(6-nitrobenzothiazol-2-yl)ureidomethyl]-N-(2H-tetrazol-5-yl)benzamide] | 376 nM
CCOC(=O)c1ccc2nc(NC(=O)N(Cc3ccc(C(=O)Nc4nn[nH]n4)cc3)c3ccc(C4CCCCC4)cc3)sc2c1 [Example 343, 2-{3-(4-Cyclohexylphenyl)-3-[4-(2H-tetrazol-5-ylcarbamoyl)benzyl]ureido}benzothiazole-6-carboxylic acid ethyl ester] | 99 nM
O=C(Nc1nn[nH]n1)c1ccc(CN(C(=O)NCc2ccccc2Br)c2ccc(C3CCCCC3)cc2)cc1 [Example 345, 4-[3-(2-Bromobenzyl)-1-(4-cyclohexylphenyl)ureidomethyl]-N-(2H-tetrazol-5-yl)benzamide] | 64 nM
O=C(Nc1nn[nH]n1)c1ccc(CN(C(=O)Nc2ccc(Cl)c(Cl)c2)c2ccc(C3CCCCC3)cc2)cc1 [Example 346, 4-[1-(4-Cyclohexylphenyl)-3-(3,4-dichlorophenyl)ureidomethyl]-N-(2H-tetrazol-5-yl)benzamide] | 25 nM
O=C(Nc1nn[nH]n1)c1ccc(CN(C(=O)NCc2ccc(OC(F)(F)F)cc2)c2ccc(C3CCCCC3)cc2)cc1 [Example 347, 4-[1-(4-Cyclohexylphenyl)-3-(4-trifluoromethoxybenzyl)ureidomethyl]-N-(2H-tetrazol-5-yl)benzamide] | 79 nM
O=C(Nc1nn[nH]n1)c1ccc(CN(C(=O)NCc2ccccc2OC(F)(F)F)c2ccc(C3CCCCC3)cc2)cc1 [Example 348, 4-[1-(4-Cyclohexylphenyl)-3-(2-trifluoromethoxybenzyl)ureidomethyl]-N-(2H-tetrazol-5-yl)benzamide] | 73 nM
O=C(Nc1nn[nH]n1)c1ccc(CN(C(=O)Nc2ccccc2OC(F)(F)F)c2ccc(C3CCCCC3)cc2)cc1 [Example 350, 4-[1-(4-Cyclohexylphenyl)-3-(2-trifluoromethoxyphenyl)ureidomethyl]-N-(2H-tetrazol-5-yl)benzamide] | 271 nM
O=C(Nc1nn[nH]n1)c1ccc(CN(C(=O)Nc2ccccc2OC(F)(F)F)c2ccc(C3=CCCCC3)cc2)cc1 [Example 351, 4-[1-(4-Cyclohex-1-enylphenyl)-3-(2-trifluoromethoxyphenyl)ureidomethyl]-N-(2H-tetrazol-5-yl)benzamide] | 368 nM
C[C@@H](NC(=O)N(Cc1ccc(C(=O)Nc2nn[nH]n2)cc1)c1ccc(C2=CCCCC2)cc1)c1ccc(Br)cc1 [Example 355, (R)-4-[3-[1-(4-Bromophenyl)ethyl]-1-(cyclohex-1-enylphenyl)ureidomethyl]-N-(2H-tetrazol-5-yl)benzamide] | 112 nM

Now those with a lower IC50, led by results:

IC50 | SMILES
22 nM | O=C(Nc1nn[nH]n1)c1ccc(CN(C(=O)NCc2ccccc2-c2ccccc2)c2ccc(C3=CCCCC3)cc2)cc1 [Example 353, 4-[3-Biphenyl-2-ylmethyl-1-(4-cyclohex-1-enylphenyl)ureidomethyl]-N-(2H-tetrazol-5-yl)benzamide]
21 nM | O=C(Nc1nn[nH]n1)c1ccc(CN(C(=O)Nc2cccc(OC(F)(F)F)c2)c2ccc(C3=CCCCC3)cc2)cc1 [Example 352, 4-[1-(4-Cyclohex-1-enylphenyl)-3-(3-trifluoromethoxyphenyl)ureidomethyl]-N-(2H-tetrazol-5-yl)benzamide]
20 nM | CC(C)(C)c1ccc(N(Cc2ccc(C(=O)Nc3nn[nH]n3)cc2)C(=O)Nc2ccc(SC(F)(F)F)cc2)cc1 [Example 332, 4-[1-(4-tert-Butylphenyl)-3-(4-trifluoromethylsulfanylphenyl)ureidomethyl]-N-(2H-tetrazol-5-yl)benzamide]
19 nM | O=C(Nc1nn[nH]n1)c1ccc(CN(C(=O)Nc2ccc3c(c2)C(F)(F)OC(F)(F)O3)c2ccc(C3=CCCCC3)cc2)cc1 [Example 358, 4-[1-(4-Cyclohex-1-enylphenyl)-3-(2,2,4,4-tetrafluoro-4H-benzo[1,3]dioxin-6-yl)ureidomethyl]-N-(2H-tetrazol-5-yl)benzamide]
17 nM | CC(C)(C)c1cccc(NC(=O)N(Cc2ccc(C(=O)Nc3nn[nH]n3)cc2)c2ccc(C3CCCCC3)cc2)c1 [Example 357, 4-[1-(4-Cyclohexylphenyl)-3-(3-tert-butylphenyl)ureidomethyl]-N-(2H-tetrazol-5-yl)benzamide]
16 nM | O=C(Nc1nn[nH]n1)c1ccc(CN(C(=O)Nc2cccc(OC(F)(F)F)c2)c2ccc(C3CCCCC3)cc2)cc1 [Example 344, 4-[1-(4-Cyclohexylphenyl)-3-(3-trifluoromethoxyphenyl)ureidomethyl]-N-(2H-tetrazol-5-yl)benzamide]
16 nM | O=C(Nc1nn[nH]n1)c1ccc(CN(C(=O)Nc2cccc(Br)c2)c2ccc(C3CCCCC3)cc2)cc1 [Example 356, 4-[3-(3-Bromophenyl)-1-(4-cyclohexylphenyl)ureidomethyl]-N-(2H-tetrazol-5-yl)benzamide]
16 nM | N#Cc1cc(NC(=O)N(Cc2ccc(C(=O)Nc3nn[nH]n3)cc2)c2ccc(C3CCCCC3)cc2)cc(C(F)(F)F)c1 [Example 359, 4-[3-(3-Cyano-5-trifluoromethylphenyl)-1-(4-cyclohexylphenyl)ureidomethyl]-N-(2H-tetrazol-5-yl)benzamide]
15 nM | Cc1ccc(NC(=O)N(Cc2ccc(C(=O)Nc3nn[nH]n3)cc2)c2ccc(C3CCCCC3)cc2)cc1Cl [Example 327, 4-[3-(3-Chloro-4-methylphenyl)-1-(4-cyclohexylphenyl)ureidomethyl]-N-(2H-tetrazol-5-yl)benzamide]
14 nM | O=C(Nc1nn[nH]n1)c1ccc(CN(C(=O)Nc2ccc(F)c(C(F)(F)F)c2)c2ccc(C3=CCCCC3)cc2)cc1 [Example 328, 4-[1-(4-Cyclohex-1-enylphenyl)-3-(4-fluoro-3-trifluoromethylphenyl)ureidomethyl]-N-(2H-tetrazol-5-yl)benzamide]
11 nM | O=C(Nc1nn[nH]n1)c1ccc(CN(C(=O)NCc2ccccc2-c2ccccc2)c2ccc(C3CCCCC3)cc2)cc1 [Example 354, 4-[3-Biphenyl-2-ylmethyl-1-(4-cyclohexylphenyl)ureidomethyl]-N-(2H-tetrazol-5-yl)benzamide]
8 nM | O=C(Nc1nn[nH]n1)c1ccc(CN(C(=O)Nc2ccc(OC(F)(F)F)c(-c3nc4ccccc4o3)c2)c2ccc(C3CCCCC3)cc2)cc1 [Example 360, 4-[3-(3-Benzoxazol-2-yl-4-trifluoromethoxyphenyl)-1-(4-cyclohexylphenyl)ureidomethyl]-N-(2H-tetrazol-5-yl)benzamide]
6 nM | O=C(Nc1nn[nH]n1)c1ccc(CN(C(=O)Nc2cccc(Br)c2)c2ccc(C3=CCCCC3)cc2)cc1 [Example 349, 4-[3-(3-Bromophenyl)-1-(4-cyclohex-1-enylphenyl)ureidomethyl]-N-(2H-tetrazol-5-yl)benzamide]

— patent US6875760B2 (Novo Nordisk A/S, priority 1999, dated 2005)
